Measurements as given in PMC7719179, “Small molecule inhibition of Dynamin-dependent endocytosis targets multiple niche signals and impairs leukemia stem cells” (Nature Communications, 2020).
“And” between values parts separate entries of the source, which are not always exact repeats. Identical values can stand only once.

Experiments:
[1] = tested on: leukemogenicity of pre-LSCs; assay: Time to leukemia of recipients injected with thymocytes from treated Lmo2^Tg mice; type: in vivo, mouse; details: for Time to leukemia / Time to leukemia (days): * non-leukemic at endpoint
Procedure: Fold expansion was calculated by dividing the absolute output number of donor-derived DN3a cells harvested at the experimental endpoint by the respective number of DN3a thymocytes injected in each recipient. […] Leukemia-propagating cell frequency was calculated by applying Poisson statistics using the ELDA: Extreme Limiting Dilution Analysis software (Walter and Eliza Hall Institute Bioinformatics, Parkville VIC, Australia)[96]. Limiting dilution transplantations were performed independently from any other transplantation assays, using thymocytes from three different Lmo2^Tg mice for each cohort. […] Log-rank (Mantel -Cox)

[2] = tested on: IL-3R, GM-CSFR and KIT internalization in patient-derived AML cells; assay: Surface expression of IL-3R, GM-CSFR and KIT in patient-derived AML cells; type: cell-based, human; details: for GM-CSFR FOLD / IL-3R FOLD / KIT FOLD: relative expression vs Unstimulated
pre-LSC self-renewal = assay: Serial transplantation assay of thymocytes from treated Lmo2^Tg mice; type: in vivo, mouse
Procedure: For primary transplantation, single-cell suspension of 2 × 10^6 thymocytes were intravenously injected into sublethally irradiated (650 Rads) isogenic Ly5.1 (Cd45.1) mice. Analysis was performed 4 weeks after transplantation and 5 × 10^6 thymocytes harvested from recipients were subsequently injected into sublethally irradiated (650 Rads) Ly5.1 (Cd45.1) recipients for the secondary and tertiary transplantations, as previously described.
Supplementary Figure 3. In vivo effect of Dynole 34-2. a, Treatment schematic and pharmacokinetic analysis of serum levels (µ M) of Dynole 34-2 at different time points (15, 30, 60, 120 and 240 minutes) following a single intraperitoneal injection (grey arrow) in 5 recipients (A, B, C, D, E). Average maximum concentration (Cmax), the time taken to reach this maximum concentration (Tmax), and the half-life (T 1/2) of Dynole 34-2 in the serum of treated mice are indicated.
Average concentration for each time point is indicated (bar). b , Treatment schematic and fold expansion of donor-derived L mo2-transgenic DN3a thymocytes enumerated in the thymus of primary (I), secondary (II) and tertiary (III) recipients, assessed four weeks after transplantation of cells harvested from 5 independent mice per cohort of donors. Number of recipients engrafted for each condition is indicated. Mean ± SD (N = number of independent mice analysed), Student’s t-test;

## CCCCCCCCNC(=O)C(C#N)=Cc1cn(CCCN(C)C)c2ccccc12 [Dynole 34-2, 2-Cyano-N-octyl-3-(1-(3-dimethylaminopropyl)-1H-indol-3-yl)-acrylamide]
[1]; Supplementary Figure 3h
  Time to leukemia: 138 days and 132 days and 116 days and 149 days
  Time to leukemia (days): > 210* days
[1]; Supplementary Figure 4d
  Time to leukemia: 170 days and 151 days and 119 days and 142 days
  Time to leukemia (days): > 210* days
[1]; recipients of thymocytes from treated Lmo2^Tg mice, result in words
  leukemogenic potential of pre-LSCs / progression to leukemia in recipients: delayed progression to leukemia
[2]; AML01-021
  GM-CSFR MFI: 11447 MFI
  IL-3R MFI: 745 MFI
  KIT MFI: 1568 MFI
  GM-CSFR FOLD: 1.03
  IL-3R FOLD: 1.00
  KIT FOLD: 0.89
[2]; AML01-050
  GM-CSFR MFI: 15894 MFI
  IL-3R MFI: 4010 MFI
  KIT MFI: 273 MFI
  GM-CSFR FOLD: 1.01
  IL-3R FOLD: 1.14
  KIT FOLD: 1.25
[2]; AML01-072
  GM-CSFR MFI: 971 MFI
  IL-3R MFI: 7383 MFI
  KIT MFI: 1318 MFI
  GM-CSFR FOLD: 1.12
  IL-3R FOLD: 1.05
  KIT FOLD: 1.74
[2]; AML01-226
  GM-CSFR MFI: 10157 MFI
  IL-3R MFI: 983 MFI
  KIT MFI: 612 MFI
  GM-CSFR FOLD: 1.05
  IL-3R FOLD: 0.99
  KIT FOLD: 0.58
[2]; AML01-307
  GM-CSFR MFI: 649 MFI
  IL-3R MFI: 4023 MFI
  KIT MFI: 5991 MFI
  GM-CSFR FOLD: 1.01
  IL-3R FOLD: 0.94
  KIT FOLD: 0.93
[2]; AML02-078
  GM-CSFR MFI: 13405 MFI
  IL-3R MFI: 4410 MFI
  KIT MFI: 1516 MFI
  GM-CSFR FOLD: 1.27
  IL-3R FOLD: 1.17
  KIT FOLD: 0.91
[2]; AML02-123
  GM-CSFR MFI: 1180 MFI
  IL-3R MFI: 2544 MFI
  KIT MFI: 34855 MFI
  GM-CSFR FOLD: 1.42
  IL-3R FOLD: 1.10
  KIT FOLD: 0.82
[2]; AML02-232
  GM-CSFR MFI: 16645 MFI
  IL-3R MFI: 506 MFI
  KIT MFI: 357 MFI
  GM-CSFR FOLD: 1.09
  IL-3R FOLD: 1.00
  KIT FOLD: 0.82
[2]; AML03-330
  GM-CSFR MFI: 10769 MFI
  IL-3R MFI: 356 MFI
  KIT MFI: 372 MFI
  GM-CSFR FOLD: 1.12
  IL-3R FOLD: 0.98
  KIT FOLD: 0.79
[2]; AML03-331
  GM-CSFR MFI: 9530 MFI
  IL-3R MFI: 798 MFI
  KIT MFI: 1709 MFI
  GM-CSFR FOLD: 0.88
  IL-3R FOLD: 1.00
  KIT FOLD: 0.98
[2]; AML4
  GM-CSFR MFI: 853 MFI
  IL-3R MFI: 1014 MFI
  KIT MFI: 5020 MFI
  GM-CSFR FOLD: 1.48
  IL-3R FOLD: 0.99
  KIT FOLD: 0.98
[2]; AML16
  GM-CSFR MFI: 4656 MFI
  IL-3R MFI: 827 MFI
  KIT MFI: 6207 MFI
  GM-CSFR FOLD: 0.80
  IL-3R FOLD: 0.78
  KIT FOLD: 0.87
[2]; AML17
  GM-CSFR MFI: 9268 MFI
  IL-3R MFI: 6591 MFI
  KIT MFI: 21009 MFI
  GM-CSFR FOLD: 1.01
  IL-3R FOLD: 1.12
  KIT FOLD: 1.17
[2]; AML18
  GM-CSFR MFI: 13295 MFI
  IL-3R MFI: 2046 MFI
  KIT MFI: 1285 MFI
  GM-CSFR FOLD: 1.08
  IL-3R FOLD: 1.00
  KIT FOLD: 1.36
[2]; AML34
  GM-CSFR MFI: 3573 MFI
  IL-3R MFI: 397 MFI
  KIT MFI: 4661 MFI
  GM-CSFR FOLD: 1.00
  IL-3R FOLD: 0.99
  KIT FOLD: 1.07
[2]; AML54
  GM-CSFR MFI: 1872 MFI
  IL-3R MFI: 508 MFI
  KIT MFI: 10397 MFI
  GM-CSFR FOLD: 1.08
  IL-3R FOLD: 0.86
  KIT FOLD: 0.90
[2]; patient-derived AML cells stimulated with IL-3 and GM-CSF, result in words
  internalization of IL-3R and GM-CSFR: prevented the internalization
pre-LSC self-renewal; tertiary recipients, result in words
  repopulating activity in serial transplantation: complete loss of repopulating activity
pre-LSC self-renewal; transplant III
  Fold expansion DN3a cells: 0.1 fold and 0.11 fold
